These results are taken from US6455268B1, “Hydrolytic enzyme substrates and assay method” (Iconix Pharmaceuticals Inc., priority 1999, dated 2002).

One data set deals with T1, β-glucuronidase (GUS) (Escherichia coli, UniProt P05804).
T1 construct: purchased Sigma Chemicals, St. Louis, Mo
Put plainly: in vitro hydrolysis with β-glucuronidase, fluorimeter excitation and emission spectra. The class given is biochemical, E. coli. The procedure: A fluorimetery cuvette was prepared by adding 3 μL of 0.5 mM 7CC-FDG in DMSO (Compound F), to 3 mL of 50 mM Hepes buffer, pH 7.0, with 1 mM each CaCl2 and MgSO4. Fluorescent excitation and emission spectra of the sample were recorded using a Jobin-Yvon-SPEX Instruments Fluormax-2 fluorimeter under the following conditions: excitation at 300-500 nm with emission recorded at 515 or 530 nm (FIG. 4, scan A and B respectively); excitation at 350 nm and emission recorded at 425-650 nm (FIG. 4, scan C); excitation at 406 nm and emission recorded at 425-530 nm (FIG. 4, scan D); and excitation at 488 nm with emission recorded at 500-650 nm (FIG. 4, scan E). […] The ratio computed is the emission at 450 nm when the exciting light was of 350 nm or 406 nm divided by the emission at 515 nm when the exciting light was of 488 nm.

The test system of data set [1] is orange peel acetylesterase (OPAE). The data set is described as follows: in vitro hydrolysis with orange peel acetylesterase, fluorescence/FRET plate reading. The class given is biochemical. As for the experimental part: (§1) Ninety-six well microtiter plates were prepared containing duplicate samples, each sample containing 4-(5-chloro-6-hydroxycoumarinamido)butyl-5-carboxamidofluorescein diacetate (“Compound 11”, 2 mM, 2 μL) in DMSO with phosphate buffered saline (PBS, 200 μL, pH 7.0). To each well was added orange peel acetylesterase (OPAE, Sigma, St. Louis, Mo., 5 μL, 39 U/mL) as a suspension in (NH4)2SO4 (2.5 M) and sodium oxalate (0.1 M). A set of control samples was prepared in which the OPAE was replaced with PBS (no enzyme). […] The plate was read prior to OPAE addition, at time 0, and at 5, 10, 30, 60, and 150 minutes after addition. Each reading was taken at three wavelength pairs using a Molecular Devices fmax fluorescent plate reader: excite 485/emission 530 (to measure fluorescein fluorescence); excite 350/emission 530 (to measure FRET fluorescence); and excite […] (to measure coumarin fluorescence).
A control set of experiments was preformed as above, but substituting a mixture of equal molar amounts of 5-carboxyfluorescein diacetate (5-CFDA, Calbiochem) and 6-chloro-7-hydroxycoumarin methyl ester. This mixture was non-fluorescent at 530 nm prior to OPAE addition and was fluorescent at 460 nm. […] Furthermore, in this unlinked mixture case, the ratio of 530 nm to 460 nm only changed from 0.13 to 0.7; in contrast to the ratio change for the compound above, from 0.13 to 13.5.

The nature of data set [2]: control samples with OPAE replaced by PBS (no enzyme), non-enzymatic hydrolysis. The class given is physicochemical. The settings on record: PBS pH 7.0, no enzyme. As for the experimental part:
as §1

T1 sequence (P05804 whole entry): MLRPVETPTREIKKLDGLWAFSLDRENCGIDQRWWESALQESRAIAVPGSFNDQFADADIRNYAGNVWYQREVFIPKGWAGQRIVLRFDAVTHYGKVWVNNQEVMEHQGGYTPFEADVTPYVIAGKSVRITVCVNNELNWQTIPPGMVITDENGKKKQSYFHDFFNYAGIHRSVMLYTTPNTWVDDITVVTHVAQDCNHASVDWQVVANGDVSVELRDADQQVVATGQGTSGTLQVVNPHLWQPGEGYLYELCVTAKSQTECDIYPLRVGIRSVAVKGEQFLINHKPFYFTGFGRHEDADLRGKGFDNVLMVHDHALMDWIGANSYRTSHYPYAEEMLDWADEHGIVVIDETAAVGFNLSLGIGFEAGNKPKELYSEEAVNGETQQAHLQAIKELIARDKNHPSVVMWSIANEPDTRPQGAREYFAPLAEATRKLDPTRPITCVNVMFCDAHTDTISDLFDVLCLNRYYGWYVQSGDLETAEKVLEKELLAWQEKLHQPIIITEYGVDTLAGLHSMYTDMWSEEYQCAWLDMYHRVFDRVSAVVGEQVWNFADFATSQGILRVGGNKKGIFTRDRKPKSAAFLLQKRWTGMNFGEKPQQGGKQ

With `O=C(O)CCC(NC(=O)Nc1ccc2c(c1)C(=O)OC21c2ccc(OC3OC(C(=O)O)C(O)C(O)C3O)cc2Oc2cc(OC3OC(C(=O)O)C(O)C(O)C3O)ccc21)C(=O)NCCCCNC(=O)c1cc2cc(Cl)c(O)cc2oc1=O` (centres unmarked) [Compound 7CC-FDG], the “cleavage of the substrate by β-glucuronidase” value on β-glucuronidase (GUS) (72 Units GUS, 50 mM Hepes pH 7.0) is “can be cleaved by β-glucuronidase readily”. Also, on β-glucuronidase (GUS) (excitation at 350 nm and 488 nm, respectively), the “dynamic range of emission ratio 450 nm/515 nm” value was “about 23 fold”. On β-glucuronidase (GUS) (excitation at 406 nm and 488 nm), the “dynamic range of emission ratio 450/515” value is “about 50 fold”. Besides, the “quenching of the coumarin moiety fluorescence in the completely cleaved product” value on β-glucuronidase (GUS) (scan D (excitation 406 nm), 60 min. versus 0 min. time point) was “more than 50%”.
Regarding `CC(=O)Oc1ccc2c(c1)Oc1cc(OC(C)=O)ccc1C21OC(=O)c2cc(C(=O)NCCCCNC(=O)c3cc4c(Cl)c(O)ccc4oc3=O)ccc21` [Compound 11, 4-(5-chloro-6-hydroxycoumarinamido)butyl-5-carboxamidofluorescein diacetate], the “ratio of 530 nm to 460 nm emission, end of change” value in data set [1] (after OPAE hydrolysis (0.94 U/mL, read up to 150 minutes), excitation 350 nm, PBS pH 7.0) was found to be 13.5. In addition, the “change of coumarin fluorescence (460 nm) after OPAE addition” value in data set [1] (in the presence of OPAE) was “decrease in fluorescence”. In data set [1] (prior to OPAE hydrolysis, excitation 350 nm, PBS pH 7.0), the “ratio of 530 nm to 460 nm emission, start of change” value is reported as 0.13. Also, the non-enzymatic hydrolysis entry in data set [2] is “very low rates of non-enzymatic hydrolysis”.
